Target: Tryptophan 5-hydroxylase 1 (Homo sapiens) (UniProt P17752)
Assay: Inhibition of TPH1 in human BON cells assessed as inhibition of serotonin biosynthesis

Sequence of Tryptophan 5-hydroxylase 1 (Homo sapiens) (P17752 whole entry, looked up): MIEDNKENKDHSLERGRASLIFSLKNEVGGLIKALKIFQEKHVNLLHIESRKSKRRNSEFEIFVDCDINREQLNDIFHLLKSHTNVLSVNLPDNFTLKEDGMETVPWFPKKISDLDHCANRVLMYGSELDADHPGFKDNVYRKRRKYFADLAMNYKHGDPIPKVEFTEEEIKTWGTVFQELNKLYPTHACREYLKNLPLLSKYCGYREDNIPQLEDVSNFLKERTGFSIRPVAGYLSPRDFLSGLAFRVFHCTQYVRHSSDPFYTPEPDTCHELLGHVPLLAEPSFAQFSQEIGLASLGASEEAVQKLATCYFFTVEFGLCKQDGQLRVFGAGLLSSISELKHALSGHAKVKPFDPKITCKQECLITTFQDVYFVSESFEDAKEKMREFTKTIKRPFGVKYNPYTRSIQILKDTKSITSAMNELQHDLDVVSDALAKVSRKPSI

SMILES	EC50
Cc1cccc(-c2ccccc2C(Oc2cc(-c3ccc(C[C@H](N)C(=O)O)cc3)nc(N)n2)C(F)(F)F)c1 (some centres undefined)	560 nM
Nc1nc(OC(c2ccccc2-c2ccco2)C(F)(F)F)cc(-c2ccc(C[C@H](N)C(=O)O)cc2)n1 (some centres undefined)	800 nM
Nc1nc(OC(c2ccccc2-n2ccc(C(F)(F)F)n2)C(F)(F)F)cc(-c2ccc(C[C@H](N)C(=O)O)cc2)n1 (some centres undefined)	750 nM
Nc1nc(OC(c2sccc2-c2ccco2)C(F)(F)F)cc(-c2ccc(C[C@H](N)C(=O)O)cc2)n1 (some centres undefined)	1190 nM
